Test results taken from patent publication US20160046618A1, “Cyclopropyl Fused Thiazin-2-Amine Compounds as Beta-Secretase Inhibitors and Methods of Use” (AMGEN INC., priority 2014, published 2016).

What was measured:
human recombinant BACE1 = human recombinant BACE1 (Homo sapiens (Human), UniProt P56817); experiment: In vitro enzymatic BACE1 FRET assay; type: biochemical; details: read-out: IC50 IP (μM) BACE1 enzyme
Outline: (§1)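 FRET cleavage assay using Ni-NTA-purified recombinant protease and 50 nM quenched peptide substrate, 1 h. Stopped by neutralising with Tris; fluorescence at 488/590 nm.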

human recombinant BACE2 = human recombinant BACE2 (Homo sapiens (Human), UniProt Q9Y5Z0); experiment: In vitro enzymatic BACE2 FRET assay; type: biochemical; details: read-out: IC50 IP (μM) BACE2 enzyme
Outline: as §1

[1] = system: Aβ40 in conditioned medium of cells stably expressing Amyloid Precursor Protein (APP); experiment: In vitro BACE-1 cell-based assay (Aβ40 sandwich ELISA); details: read-out: IC50 IP (μM) BACE1 cell
Outline: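 APP-stable cells, pre-cultured 24 h at 37° C in DMEM/10% FBS, were treated 24 h with compound in a 10-point series starting at 100 μM or 10 μM (0.1% DMSO final). Secreted Aβ40 in conditioned medium was measured by pAb40/biotin-6E10 sandwich ELISA with Europium time-resolved fluorescence; IC50 from percent inhibition versus concentration.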

Recombinant Cat D = Recombinant Cat D (Homo sapiens (Human), UniProt P07339); experiment: In vitro enzymatic Cathepsin D (Cat D) FRET assay; type: biochemical; details: read-out: IC50 IP (μM) CatD
Outline: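 Fluorescence at 500 nm excitation and 580 nm emission reports cleavage of a quenched fluorophore–quencher peptide (20 nM) by CHO-expressed Cat D. Reactions ran one hour in 0.05 M citrate pH 3.5, 5 mM CHAPS, 10% DMSO final before a Tris stop raised pH to neutrality.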

Chain of human recombinant BACE1 (P56817 46-501): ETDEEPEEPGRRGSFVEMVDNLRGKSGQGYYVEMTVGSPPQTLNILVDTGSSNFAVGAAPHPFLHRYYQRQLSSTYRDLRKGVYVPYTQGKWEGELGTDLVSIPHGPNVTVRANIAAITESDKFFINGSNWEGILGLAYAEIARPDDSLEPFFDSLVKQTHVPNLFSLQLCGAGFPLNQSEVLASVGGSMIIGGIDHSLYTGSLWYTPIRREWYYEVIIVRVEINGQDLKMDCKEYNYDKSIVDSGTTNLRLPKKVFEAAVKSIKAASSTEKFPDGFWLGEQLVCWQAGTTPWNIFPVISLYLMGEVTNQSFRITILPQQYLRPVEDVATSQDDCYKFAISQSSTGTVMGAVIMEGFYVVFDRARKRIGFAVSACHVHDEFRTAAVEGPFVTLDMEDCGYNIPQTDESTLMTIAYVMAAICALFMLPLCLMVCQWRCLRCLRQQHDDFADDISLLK
Chain of Recombinant Cat D (P07339 65-412): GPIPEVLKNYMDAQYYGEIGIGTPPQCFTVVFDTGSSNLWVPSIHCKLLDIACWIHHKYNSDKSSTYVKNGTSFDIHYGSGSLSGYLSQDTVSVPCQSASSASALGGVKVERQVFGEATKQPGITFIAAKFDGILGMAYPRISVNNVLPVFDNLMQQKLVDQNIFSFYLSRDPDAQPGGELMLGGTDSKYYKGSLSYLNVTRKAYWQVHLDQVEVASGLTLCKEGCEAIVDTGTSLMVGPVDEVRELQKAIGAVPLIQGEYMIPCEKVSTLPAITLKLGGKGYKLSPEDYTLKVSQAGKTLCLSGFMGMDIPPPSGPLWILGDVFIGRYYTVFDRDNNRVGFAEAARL
Chain of human recombinant BACE2 (Q9Y5Z0 63-518): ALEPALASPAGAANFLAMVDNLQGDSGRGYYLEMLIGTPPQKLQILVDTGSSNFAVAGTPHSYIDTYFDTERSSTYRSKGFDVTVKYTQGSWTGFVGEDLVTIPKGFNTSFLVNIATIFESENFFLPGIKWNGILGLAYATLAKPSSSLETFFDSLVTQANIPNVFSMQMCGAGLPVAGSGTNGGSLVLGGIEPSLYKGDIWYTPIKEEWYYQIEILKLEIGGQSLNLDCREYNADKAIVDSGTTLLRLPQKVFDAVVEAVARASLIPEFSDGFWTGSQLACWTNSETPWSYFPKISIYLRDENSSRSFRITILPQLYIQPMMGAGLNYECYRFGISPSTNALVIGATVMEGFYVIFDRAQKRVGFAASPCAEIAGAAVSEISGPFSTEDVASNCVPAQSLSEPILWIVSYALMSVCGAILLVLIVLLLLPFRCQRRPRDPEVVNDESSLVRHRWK

SMILES	IC50 (human recombinant BACE1)	IC50 (human recombinant BACE2)	IC50 [1]	IC50 (Recombinant Cat D)
C[C@H](Oc1cnc2c(Nc3cc(F)c(F)c([C@@]4(C)N=C(N)S[C@@]5(C(=O)N6CCCC6)C[C@H]54)c3)nccc2n1)c1ncco1 [Example 938, N-(3-((1S,5S,6S)-3-amino-5-methyl-1-(1-pyrrolidinylcarbonyl)-2-thia-4-azabicyclo[4.1.0]hept-3-en-5-yl)-4,5-difluorophenyl)-2-((1S)-1-(1,3-oxazol-2-yl)ethoxy)pyrido[3,4-b]pyrazin-5-amine]	0.00129 µM	0.0633 µM	0.00508 µM	162 µM
C[C@H](Oc1cnc2c(Nc3cc(F)c(F)c([C@@]4(C)N=C(N)S[C@@]5(C#N)C[C@H]54)c3)nccc2n1)c1ncco1 [Example 939, (1S,5S,6S)-3-amino-5-(2,3-difluoro-5-((2-((1S)-1-(1,3-oxazol-2-yl)ethoxy)pyrido[3,4-b]pyrazin-5-yl)amino)phenyl)-5-methyl-2-thia-4-azabicyclo[4.1.0]hept-3-ene-1-carbonitrile]	0.000867 µM	0.127 µM	0.165 µM	209 µM
C[C@]1(c2cc(NC(=O)c3cnc(OCC(F)(F)F)cn3)cc(F)c2F)N=C(N)S[C@@]2(C#N)C[C@H]21 [Example 940, N-(3-((1S,5S,6S)-3-amino-1-cyano-5-methyl-2-thia-4-azabicyclo[4.1.0]hept-3-en-5-yl)-4,5-difluorophenyl)-5-(2,2,2-trifluoroethoxy)-2-pyrazinecarboxamide]	0.004 µM	0.0224 µM	0.015 µM	1390 µM
C#CCOc1cnc2c(Nc3ccc(F)c([C@@]4(CF)N=C(N)S[C@@]5(COC)C[C@H]54)c3)ncnc2c1 [Example 942, N-(3-((1S,5S,6S)-3-amino-5-(fluoromethyl)-1-(methoxymethyl)-2-thia-4-azabicyclo[4.1.0]hept-3-en-5-yl)-4-fluorophenyl)-7-(2-propyn-1-yloxy)pyrido[3,2-d]pyrimidin-4-amine]	0.00314 µM	0.0417 µM	0.00518 µM	1090 µM
C#CCOc1cnc2c(Nc3cc(F)c(F)c([C@@]4(C)N=C(N)S[C@@]5(COC)C[C@H]54)c3)ncnc2c1 [Example 943, N-(3-((1S,5S,6S)-3-amino-1-(methoxymethyl)-5-methyl-2-thia-4-azabicyclo[4.1.0]hept-3-en-5-yl)-4,5-difluorophenyl)-7-(2-propyn-1-yloxy)pyrido[3,2-d]pyrimidin-4-amine]	0.00223 µM	0.101 µM	0.00593 µM	571 µM
C#CCOc1cnc2c(Nc3cnc(F)c([C@@]4(C)N=C(N)S[C@@]5(CF)C[C@H]54)c3)ncnc2c1 [Example 944, N-(5-((1S,5S,6S)-3-amino-1-(fluoromethyl)-5-methyl-2-thia-4-azabicyclo[4.1.0]hept-3-en-5-yl)-6-fluoro-3-pyridinyl)-7-(2-propyn-1-yloxy)pyrido[3,2-d]pyrimidin-4-amine]	0.00102 µM	0.0696 µM	0.00216 µM	> 400 µM
COCCOc1cnc2c(Nc3cc(F)c(F)c([C@@]4(C)N=C(N)S[C@@]5(COC)C[C@H]54)c3)ncnc2c1 [Example 946, N-(3-((1S,5S,6S)-3-amino-1-(methoxymethyl)-5-methyl-2-thia-4-azabicyclo[4.1.0]hept-3-en-5-yl)-4,5-difluorophenyl)-7-(2-methoxyethoxy)pyrido[3,2-d]pyrimidin-4-amine]	0.0268 µM	0.517 µM	0.0174 µM	352 µM
COCCOc1cnc2c(Nc3ccc(F)c([C@@]4(CF)N=C(N)S[C@@]5(COC)C[C@H]54)c3)ncnc2c1 [Example 947, N-(3-((1S,5S,6S)-3-amino-5-(fluoromethyl)-1-(methoxymethyl)-2-thia-4-azabicyclo[4.1.0]hept-3-en-5-yl)-4-fluorophenyl)-7-(2-methoxyethoxy)pyrido[3,2-d]pyrimidin-4-amine]	0.0282 µM	0.519 µM	0.0337 µM	595 µM
COC[C@]12C[C@H]1[C@@](C)(c1cc(Nc3ncnc4cc(OCc5nc(C)oc5C)cnc34)cc(F)c1F)N=C(N)S2 [Example 948, N-(3-((1S,5S,6S)-3-amino-1-(methoxymethyl)-5-methyl-2-thia-4-azabicyclo[4.1.0]hept-3-en-5-yl)-4,5-difluorophenyl)-7-((2,5-dimethyl-1,3-oxazol-4-yl)methoxy)pyrido[3,2-d]pyrimidin-4-amine]	0.00304 µM	0.144 µM	0.0102 µM	80.9 µM
C[C@]1(c2cc(Nc3ncc(F)c4cc(OCc5ncco5)cnc34)cc(F)c2F)N=C(N)S[C@@]2(C(F)F)C[C@@H]12 [Example 949, N-(3-((1S,5S,6S)-3-amino-1-(difluoromethyl)-5-methyl-2-thia-4-azabicyclo[4.1.0]hept-3-en-5-yl)-4,5-difluorophenyl)-5-fluoro-3-(1,3-oxazol-2-ylmethoxy)-1,7-naphthyridin-8-amine]	0.00245 µM	0.0588 µM	0.0841 µM	336 µM
COC[C@]12C[C@H]1[C@@](C)(c1cc(Nc3ncc(F)c4cc(OCc5ncco5)cnc34)cc(F)c1F)N=C(N)S2 [Example 950, N-(3-((1S,5S,6S)-3-amino-1-(methoxymethyl)-5-methyl-2-thia-4-azabicyclo[4.1.0]hept-3-en-5-yl)-4,5-difluorophenyl)-5-fluoro-3-(1,3-oxazol-2-ylmethoxy)-1,7-naphthyridin-8-amine]	0.0051 µM	0.118 µM	0.104 µM	384 µM
C#CCOc1cnc2c(Nc3cc(F)c(F)c([C@@]4(C)N=C(N)S[C@@]5(COC)C[C@H]54)c3)ncc(F)c2c1 [Example 951, N-(3-((1S,5S,6S)-3-amino-1-(methoxymethyl)-5-methyl-2-thia-4-azabicyclo[4.1.0]hept-3-en-5-yl)-4,5-difluorophenyl)-5-fluoro-3-(2-propyn-1-yloxy)-1,7-naphthyridin-8-amine]	0.00233 µM	0.0497 µM	0.0603 µM	915 µM
CCC#CCOc1cnc2c(Nc3ccc(F)c([C@@]4(CF)N=C(N)S[C@@]5(/C=C/C(=O)N(C)C)C[C@H]54)c3)nccc2n1 [Example 952, (2E)-3-((1R,5S,6S)-3-amino-5-(fluoromethyl)-5-(2-fluoro-5-((2-(2-pentyn-1-yloxy)pyrido[3,4-b]pyrazin-5-yl)amino)phenyl)-2-thia-4-azabicyclo[4.1.0]hept-3-en-1-yl)-N,N-dimethyl-2-propenamide]	0.00126 µM	0.00755 µM	0.0108 µM	16.3 µM
C#CCOc1cnc(C(=O)Nc2ccc(F)c([C@@]3(CF)N=C(N)S[C@@]4(COCC(F)(F)F)C[C@H]43)c2)cn1 [Example 953, N-(3-((1S,5S,6S)-3-amino-5-(fluoromethyl)-1-((2,2,2-trifluoroethoxy)methyl)-2-thia-4-azabicyclo[4.1.0]hept-3-en-5-yl)-4-fluorophenyl)-5-(2-propyn-1-yloxy)-2-pyrazinecarboxamide]	0.00028 µM	0.0267 µM	0.00149 µM	61.9 µM
NC1=N[C@](CF)(c2cc(NC(=O)c3ccc(Cl)cn3)ccc2F)[C@@H]2C[C@]2(COCC(F)(F)F)S1 [Example 954, N-(3-((1S,5S,6S)-3-amino-5-(fluoromethyl)-1-((2,2,2-trifluoroethoxy)methyl)-2-thia-4-azabicyclo[4.1.0]hept-3-en-5-yl)-4-fluorophenyl)-5-chloro-2-pyridinecarboxamide]	0.00579 µM	0.00382 µM	0.0144 µM	715 µM
